The record followed here is ChEMBL document CHEMBL3621163, “Phenothiazine-based CaaX competitive inhibitors of human farnesyltransferase bearing a cysteine, methionine, serine or valine moiety as a new family of antitumoral compounds” (Bioorg Med Chem Lett, 2015).

Format in all cases: protein-complex assay
For assay [1], the target named is T1, Protein farnesyltransferase (Homo sapiens, UniProt P49354+P49356). Description: Inhibition of recombinant human FTase using FPP/dansyl-GCVLS as substrate at 100 uM measured for 15 mins by fluorimetric analysis relative to control.
Assay [2] deals with T1, Protein farnesyltransferase. The assay can be described thus: Inhibition of recombinant human FTase using FPP/dansyl-GCVLS as substrate measured for 15 mins by fluorimetric analysis.
Assay [3] has the same target. The assay can be described thus: Inhibition of human FTase.

The term inhibition denotes the change of the read-out against control, counted positive when it falls. By IC50 is commonly meant the concentration needed to halve the response being measured.

With `CSCC[C@H](NC(=O)CCN1c2ccccc2Sc2ccc(Cl)cc21)C(=O)O`, in assay [1], the inhibition is 96%. Also, the IC50 in assay [2] is 18.9 µM. Turning to `COC(=O)[C@@H](NC(=O)CCn1c2ccccc2c2ccccc21)C(C)C`, in assay [1], the inhibition came out at 12%.

With `CC(C)[C@H](NC(=O)CCN1c2ccccc2Sc2ccccc21)C(=O)O`, in assay [1], the inhibition was 76%. Further, in assay [2], the IC50 was found to be 44.7 µM. On to `COC(=O)[C@@H](NC(=O)CCN1c2ccccc2Sc2ccccc21)C(C)C`, for which, in assay [1], the inhibition was 52%. For the molecule `O=C(CCn1c2ccccc2c2ccccc21)N[C@@H](CS)C(=O)O`, the inhibition in assay [1] amounted to 67%. For the same molecule, in assay [2], the IC50 was 65.4 µM. Regarding `CCOC(=O)[C@H](CS)NC(=O)CCN1c2ccccc2Sc2ccccc21`, the inhibition in assay [1] is 10%. On the same count and under the same terms, the same measure for `COC(=O)[C@H](CO)NC(=O)CCN1c2ccccc2Sc2ccccc21`: 63%. Consider `CSCC[C@H](NC(=O)CCN1c2ccccc2Sc2ccccc21)C(=O)O`, for which the inhibition in assay [1] was determined as 92%. The half-maximal inhibitory concentration (IC50) in assay [2] is 11.7 µM. Take `CC(C)[C@H](NC(=O)CCn1c2ccccc2c2ccccc21)C(=O)O`: in assay [1], the inhibition amounted to 22%.

As for `O=C(CCn1c2ccccc2c2ccccc21)N[C@@H](CO)C(=O)O`, the inhibition in assay [1] worked out at 33%.

On to `O=C(CCn1c2ccccc2c2ccccc21)OCCS`, for which the IC50 in assay [3] amounted to 35 µM. Consider `COC(=O)[C@H](CCSC)NC(=O)CCN1c2ccccc2Sc2ccccc21`, for which the inhibition in assay [1] was found to be 5%. In the case of `O=C(CCN1c2ccccc2Sc2ccccc21)N[C@@H](CS)C(=O)O`, in assay [1], the inhibition is 92%. For the same molecule, the IC50 in assay [2] turned out to be 4.7 µM. Taken in the same sequence, the figures for `CSCC[C@H](NC(=O)CCn1c2ccccc2c2ccccc21)C(=O)O` were 73% and 40.2 µM.

For `O=C(CCN1c2ccccc2Sc2ccccc21)N[C@@H](CO)C(=O)O`, the inhibition in assay [1] stood at 94%. Also, the IC50 in assay [2] came out at 12 µM. With `COC(=O)[C@H](CO)NC(=O)CCn1c2ccccc2c2ccccc21`, the inhibition in assay [1] is 23%. On to `CCOC(=O)[C@H](CSSC[C@H](NC(=O)CCN1c2ccccc2Sc2ccccc21)C(=O)OCC)NC(=O)CCN1c2ccccc2Sc2ccccc21`, for which the inhibition in assay [1] was determined as 0%. Same read-out and setting: the same measure for `CCOC(=O)[C@H](CS)NC(=O)CCn1c2ccccc2c2ccccc21`: 15%; for `COC(=O)[C@H](CCSC)NC(=O)CCN1c2ccccc2Sc2ccc(Cl)cc21`: 0%; for `COC(=O)[C@H](CCSC)NC(=O)CCn1c2ccccc2c2ccccc21`: 51%.
